In EP1247803A2, “Indolinone compounds suitable for modulation of protein kinases” (Sugen, Inc., priority 1996, dated 1998):

Tests used:
EGFR = target: T1, EGFR (Homo sapiens, UniProt P00533); test: EGFR ELISA assay (in vitro kinase activity, EGFR captured from A431 cell lysate); format: biochemical; parameters: concentration or dose not given beside the values
T1 construct: Add 7 ug A431 cell lysate per well (EGFR source); endogenous in cells; host or cells: A431
In short: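 EGFR from A431 lysate was captured on anti-EGFR antibody-coated plates and preincubated with compounds for 30 min. Autophosphorylation ran 5 min with 3 uM ATP and 5 mM MnCl2 (final), stopped with 20 mM EDTA. Phosphotyrosine was detected by anti-pTyr ELISA with ABTS/H2O2, read at 410 nm.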

PDGF-R = PDGF-R (Homo sapiens, UniProt P09619); test: PDGF-R ELISA; format: cell-based
Text: A PDGF-R ELISA is described in International Patent Publication No. WO 96/40116, published December 19, 1996 by Tang et al.

Sequence of PDGF-R (P09619 33-1106, species assumed): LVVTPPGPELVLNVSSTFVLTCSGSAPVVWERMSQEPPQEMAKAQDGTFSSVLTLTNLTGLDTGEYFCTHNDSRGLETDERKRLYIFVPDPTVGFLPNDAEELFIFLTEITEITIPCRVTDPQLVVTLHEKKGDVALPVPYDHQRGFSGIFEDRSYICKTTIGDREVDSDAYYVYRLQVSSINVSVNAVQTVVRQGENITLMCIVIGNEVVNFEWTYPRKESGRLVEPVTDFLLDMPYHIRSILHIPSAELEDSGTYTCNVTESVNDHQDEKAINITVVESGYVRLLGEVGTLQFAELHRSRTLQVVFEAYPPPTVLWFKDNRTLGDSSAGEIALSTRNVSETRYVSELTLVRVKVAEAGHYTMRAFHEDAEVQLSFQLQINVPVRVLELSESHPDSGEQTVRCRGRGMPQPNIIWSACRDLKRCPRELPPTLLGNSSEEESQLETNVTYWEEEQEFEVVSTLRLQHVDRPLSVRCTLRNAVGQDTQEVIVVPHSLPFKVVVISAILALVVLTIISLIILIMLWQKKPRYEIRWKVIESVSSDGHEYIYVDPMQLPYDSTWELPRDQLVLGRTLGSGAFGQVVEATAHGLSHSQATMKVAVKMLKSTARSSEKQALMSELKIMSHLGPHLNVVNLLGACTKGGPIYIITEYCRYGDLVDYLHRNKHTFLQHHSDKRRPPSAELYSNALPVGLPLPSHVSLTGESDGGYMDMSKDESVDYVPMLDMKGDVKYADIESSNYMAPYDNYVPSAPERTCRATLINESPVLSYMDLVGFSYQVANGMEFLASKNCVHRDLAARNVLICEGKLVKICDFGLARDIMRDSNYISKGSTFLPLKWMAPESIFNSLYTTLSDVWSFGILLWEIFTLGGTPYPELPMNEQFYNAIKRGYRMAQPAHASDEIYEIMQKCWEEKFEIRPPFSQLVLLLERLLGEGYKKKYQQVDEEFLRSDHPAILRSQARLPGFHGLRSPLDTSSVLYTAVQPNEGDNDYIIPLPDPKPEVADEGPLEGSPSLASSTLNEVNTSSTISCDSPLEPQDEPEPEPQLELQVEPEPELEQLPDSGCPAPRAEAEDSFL
T1 sequence (P00533 25-1210): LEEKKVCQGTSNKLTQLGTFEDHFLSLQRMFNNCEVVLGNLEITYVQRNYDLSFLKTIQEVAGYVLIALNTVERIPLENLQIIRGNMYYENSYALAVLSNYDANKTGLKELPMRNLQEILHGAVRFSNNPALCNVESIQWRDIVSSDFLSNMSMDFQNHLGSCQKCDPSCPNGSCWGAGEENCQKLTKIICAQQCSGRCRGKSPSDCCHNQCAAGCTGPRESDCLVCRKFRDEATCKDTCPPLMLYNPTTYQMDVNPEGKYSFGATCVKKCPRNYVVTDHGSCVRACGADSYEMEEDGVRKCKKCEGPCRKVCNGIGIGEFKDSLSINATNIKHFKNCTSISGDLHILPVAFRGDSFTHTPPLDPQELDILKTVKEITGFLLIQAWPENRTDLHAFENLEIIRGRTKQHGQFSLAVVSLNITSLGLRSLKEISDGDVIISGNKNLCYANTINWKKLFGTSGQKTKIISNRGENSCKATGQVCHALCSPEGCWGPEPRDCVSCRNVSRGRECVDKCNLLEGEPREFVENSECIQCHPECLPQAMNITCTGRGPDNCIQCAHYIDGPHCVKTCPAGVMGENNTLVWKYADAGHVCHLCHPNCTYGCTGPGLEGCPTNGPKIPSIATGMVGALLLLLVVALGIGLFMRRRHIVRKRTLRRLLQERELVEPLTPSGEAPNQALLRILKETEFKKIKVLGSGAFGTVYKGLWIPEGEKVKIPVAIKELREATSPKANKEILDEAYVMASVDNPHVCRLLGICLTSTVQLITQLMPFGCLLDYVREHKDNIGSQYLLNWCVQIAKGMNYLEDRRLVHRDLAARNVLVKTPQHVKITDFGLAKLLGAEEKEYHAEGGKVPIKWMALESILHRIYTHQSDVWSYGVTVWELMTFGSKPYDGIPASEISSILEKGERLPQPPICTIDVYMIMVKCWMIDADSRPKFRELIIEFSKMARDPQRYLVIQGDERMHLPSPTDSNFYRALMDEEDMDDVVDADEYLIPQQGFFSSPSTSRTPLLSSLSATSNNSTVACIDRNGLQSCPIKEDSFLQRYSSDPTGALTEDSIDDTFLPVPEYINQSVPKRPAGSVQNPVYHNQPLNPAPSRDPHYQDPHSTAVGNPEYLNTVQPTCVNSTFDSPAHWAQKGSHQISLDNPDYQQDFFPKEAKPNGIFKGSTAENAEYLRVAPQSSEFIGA

Row | Compound | Biochem EGFR %Inhibition (EGFR) [%] | PDGF Kinase %Inhibition (PDGF-R) [%]
1 | O=C1Nc2ccc(S(=O)(=O)Nc3ccc(C(F)(F)F)cc3)cc2C1=Cc1cc(Br)ccc1O [10733/E09] | 72.4 | 35.8
2 | O=C1Nc2c(Br)cc(Br)cc2C1=Cc1ccc([N+](=O)[O-])cc1 [10734/A06] | -6.4 | -9.9
3 | CCOC(=O)CCc1c(C(=O)OCC)[nH]c(C=C2C(=O)Nc3ccc(S(=O)(=O)Nc4ccc(C(F)(F)F)cc4)cc32)c1CC(=O)OCC [10718/E05] | -3.1 | 
4 | Cc1c(O)ccc(C=C2C(=O)Nc3ccc(S(=O)(=O)Nc4ccc(C(F)(F)F)cc4)cc32)c1O [10718/E09] | 17.0 | 
5 | O=C1Nc2ccc(S(=O)(=O)Nc3ccc(C(F)(F)F)cc3)cc2C1=Cc1cc(Cl)cc(Cl)c1O [10734/E03] | 55.0 | 27.2
6 | Cc1c(Br)ccc2c1C(=Cc1ccc(C(C)(C)C)cc1)C(=O)N2 [10734/C10] | 24.4 | 17.4
7 | O=C1Nc2ccc(S(=O)(=O)Nc3ccc(C(F)(F)F)cc3)cc2C1=Cc1cc([N+](=O)[O-])ccc1O [10733/E10] | 31.3 | 10.3
8 | CC(C)(C)c1cc(C=C2C(=O)Nc3ccc(S(=O)(=O)N4CCOCC4)cc32)cc(C(C)(C)C)c1OCc1ccccc1 [10733/F05] | 84.6 | -25.1
9 | O=C1Nc2ccc(I)cc2C1=Cc1cc(Cl)ccc1O [10734/B04] | 38.7 | 14.4
10 | O=C1Nc2ccc(S(=O)(=O)Nc3ccc(C(F)(F)F)cc3)cc2C1=Cc1ccc2ccccc2c1O [10718/E04] | 16.4 | 
11 | O=C1Nc2ccc(CCCl)cc2C1=Cc1cc([N+](=O)[O-])ccc1O [10733/G10] | 18.2 | -58.0
12 | O=C1Nc2ccc(I)cc2C1=Cc1ccc([N+](=O)[O-])cc1 [10734/B06] | 54.0 | 0.2
13 | COc1cc(Br)cc(C=C2C(=O)Nc3ccc(S(=O)(=O)N4CCOCC4)cc32)c1O [10733/F08] | 17.2 | -32.4
14 | Cc1cc(C=C2C(=O)Nc3ccc(S(=O)(=O)Nc4ccc(C(F)(F)F)cc4)cc32)cc(C)c1OCc1ccccc1 [10733/E07] | 19.9 | 29.3
15 | CC(C)(C)c1ccc(C=C2C(=O)Nc3ccc(I)cc32)cc1 [10734/B10] | 60.7 | 7.7
16 | Cc1c(Br)ccc2c1C(=Cc1cc(Br)cc(Br)c1O)C(=O)N2 [10734/C07] | 41.0 | 32.0
17 | O=C1Nc2ccc(I)cc2C1=Cc1ccc(O)c(Br)c1 [10734/B09] | 34.9 | 12.6
18 | CCN(CC)c1ccc(C=C2C(=O)Nc3ccc(S(=O)(=O)NC)cc32)c(O)c1 [10734/D05] | -9.6 | 8.2
19 | O=C1Nc2ccc(S(=O)(=O)Nc3ccc(C(F)(F)F)cc3)cc2C1=Cc1ccc(Cl)c([N+](=O)[O-])c1 [10718/E08] | 9.3 | 
20 | Cc1c(Br)ccc2c1C(=Cc1cccc(F)c1O)C(=O)N2 [10734/C08] | 35.1 | 5.5

Row | Compound | Biochem EGFR %Inhibition (EGFR) [%] | PDGF Kinase %Inhibition (PDGF-R) [%]
21 | CC(C)(C)c1cc(C=C2C(=O)Nc3ccc(S(=O)(=O)Nc4ccc(C(F)(F)F)cc4)cc32)cc(C(C)(C)C)c1OCc1ccccc1 [10733/E05] | 58.3 | -33.2
22 | COc1c(C)cc(C=C2C(=O)Nc3ccc(S(=O)(=O)N4CCOCC4)cc32)cc1C [10733/F06] | 17.8 | -4.8
23 | O=C1Nc2c(Br)cc(Br)cc2C1=Cc1cc(Cl)cc(Cl)c1O [10734/A03] | 18.5 | 22.3
24 | CCOc1cccc(C=C2C(=O)Nc3ccc(S(=O)(=O)NC)cc32)c1O [10734/D02] | 5.2 | 6.4
25 | O=C1Nc2ccc(I)cc2C1=Cc1cc(Br)cc(Br)c1O [10734/B07] | 65.5 | 18.8
26 | COc1cc(Br)cc(C=C2C(=O)Nc3ccc(S(=O)(=O)Nc4ccc(C(F)(F)F)cc4)cc32)c1O [10733/E08] | 54.2 | 75.2
27 | COc1c(O)ccc(C=C2C(=O)Nc3ccc(S(=O)(=O)Nc4ccc(C(F)(F)F)cc4)cc32)c1[N+](=O)[O-] [10733/E11] | 31.6 | 15.9
28 | CC(C)(C)c1cc(C=C2C(=O)Nc3ccc(S(=O)(=O)N4CCOCC4)cc32)cc(I)c1OCc1ccccc1 [10733/F02] | 11.3 | 3.8
29 | COc1c(C(C)(C)C)cc(C=C2C(=O)Nc3ccc(CCCl)cc32)cc1C(C)(C)C [10733/G04] | 10.6 | 11.9
30 | CNS(=O)(=O)c1ccc2c(c1)C(=Cc1cc(Br)cc(Br)c1O)C(=O)N2 [10734/D07] | 51.1 | 28.1
31 | Cc1c(Br)ccc2c1C(=Cc1ccc(O)c(Br)c1)C(=O)N2 [10734/C09] | 36.2 | 11.3
32 | COc1c([N+](=O)[O-])cc(C=C2C(=O)Nc3ccc(S(=O)(=O)Nc4ccc(C(F)(F)F)cc4)cc32)cc1C(C)(C)C [10733/E03] | 10.7 | 43.1
33 | COc1c([N+](=O)[O-])cc(C=C2C(=O)Nc3ccc(CCCl)cc32)cc1C(C)(C)C [10733/G03] | 0.7 | 12.7
34 | COc1c(O)ccc(C=C2C(=O)Nc3ccc(S(=O)(=O)N4CCOCC4)cc32)c1[N+](=O)[O-] [10733/F11] | 0.6 | -17.8
35 | O=C1Nc2c(Br)cc(Br)cc2C1=Cc1cc(Cl)ccc1O [10734/A04] | 11.4 | 11.7
36 | CCN(CC)c1ccc(C=C2C(=O)Nc3ccc(Br)c(C)c32)c(O)c1 [10734/C05] | 9.3 | 3.8
37 | O=C1Nc2ccc(CCCl)cc2C1=Cc1cc(Br)ccc1O [10733/G09] | 38.7 | -17.0
38 | Cc1c(Br)ccc2c1C(=Cc1cc(Cl)cc(Cl)c1O)C(=O)N2 [10734/C03] | 48.6 | 24.5
39 | COc1c(O)ccc(C=C2C(=O)Nc3ccc(CCCl)cc32)c1[N+](=O)[O-] [10733/G11] | -1.0 | -4.4
40 | Cc1[nH]c(C=C2C(=O)Nc3c(Br)cc(Br)cc32)c(Br)c1Br [10717/A11] | 59.9 | 

Row | Compound | Biochem EGFR %Inhibition (EGFR) [%] | PDGF Kinase %Inhibition (PDGF-R) [%]
41 | O=C1Nc2c(Br)cc(Br)cc2C1=Cc1cccc(F)c1O [10734/A08] | 6.8 | 9.1
42 | CNS(=O)(=O)c1ccc2c(c1)C(=Cc1cc(Cl)cc(Cl)c1O)C(=O)N2 [10734/D03] | 19.6 | 24.1
43 | O=C1Nc2ccc(I)cc2C1=Cc1cccc(F)c1O [10734/B08] | 19.3 | -2.4
44 | CNS(=O)(=O)c1ccc2c(c1)C(=Cc1ccc(C(C)(C)C)cc1)C(=O)N2 [10734/D10] | -4.4 | 9.9
45 | CCOc1cccc(C=C2C(=O)Nc3ccc(I)cc32)c1O [10734/B02] | -8.9 | -2.9
46 | CCN(CC)c1ccc(C=C2C(=O)Nc3ccc(I)cc32)c(O)c1 [10734/B05] | 17.8 | 56.3
47 | COc1c(C(C)(C)C)cc(C=C2C(=O)Nc3ccc(S(=O)(=O)Nc4ccc(C(F)(F)F)cc4)cc32)cc1C(C)(C)C [10733/E04] | 45.4 | -13.7
48 | CCOC(=O)c1cc(C=C2C(=O)Nc3ccc(S(=O)(=O)Nc4ccc(C(F)(F)F)cc4)cc32)oc1C [10718/E06] | 2.0 | 
49 | CCOc1cccc(C=C2C(=O)Nc3ccc(S(=O)(=O)Nc4ccc(C(F)(F)F)cc4)cc32)c1O [10734/E02] | -10.8 | 50.1
50 | CNS(=O)(=O)c1ccc2c(c1)C(=Cc1cccc(F)c1O)C(=O)N2 [10734/D08] | -13.7 | 2.0
51 | COc1c(C(C)(C)C)cc(C=C2C(=O)Nc3ccc(S(=O)(=O)N4CCOCC4)cc32)cc1C(C)(C)C [10733/F04] | 76.3 | -28.7
52 | CNS(=O)(=O)c1ccc2c(c1)C(=Cc1ccc([N+](=O)[O-])cc1)C(=O)N2 [10734/D06] | 1.3 | -9.1
53 | CNS(=O)(=O)c1ccc2c(c1)C(=Cc1cc(Cl)ccc1O)C(=O)N2 [10734/D04] | -10.7 | 13.5
54 | O=C1Nc2c(Br)cc(Br)cc2C1=Cc1cc(Br)cc(Br)c1O [10734/A07] | 15.2 | 21.9
55 | COC(=O)c1[nH]c(C)c(C=C2C(=O)Nc3ccc(S(=O)(=O)Nc4ccc(C(F)(F)F)cc4)cc32)c1C(=O)OC [10718/E07] | 13.9 | 
56 | O=C1Nc2c(Br)cc(Br)cc2C1=Cc1ccc(O)c(Br)c1 [10734/A09] | 27.3 | -9.5
57 | O=C1Nc2ccc(S(=O)(=O)Nc3ccc(C(F)(F)F)cc3)cc2C1=Cc1ccc([N+](=O)[O-])o1 [10718/E11] | -15.2 | 
58 | O=C1Nc2ccc(S(=O)(=O)Nc3ccc(C(F)(F)F)cc3)cc2C1=Cc1ccco1 [10718/E10] | -7.5 | 
